According to ChEMBL document CHEMBL2074014, “Role of blood-brain barrier organic anion transporter 3 (OAT3) in the efflux of indoxyl sulfate, a uremic toxin: its involvement in neurotransmitter metabolite clearance from the brain” (J Neurochem, 2002):

Key:
[1] = target: T1, Organic anion transporter 3 (OAT3) (Rattus norvegicus, UniProt Q9R1U7); assay: TP_TRANSPORTER: inhibition of Indoxyl sulfate uptake (Indoxyl sulfate: 2 uM, Baclofen: 1000 uM) in Xenopus laevis oocytes; type: functional, cell-based, Oocyte; design: scale not given: the % may be the effect or the level left; conditions: probe Indoxyl sulfate, read-out: Activity
T1 sequence (Q9R1U7 whole entry): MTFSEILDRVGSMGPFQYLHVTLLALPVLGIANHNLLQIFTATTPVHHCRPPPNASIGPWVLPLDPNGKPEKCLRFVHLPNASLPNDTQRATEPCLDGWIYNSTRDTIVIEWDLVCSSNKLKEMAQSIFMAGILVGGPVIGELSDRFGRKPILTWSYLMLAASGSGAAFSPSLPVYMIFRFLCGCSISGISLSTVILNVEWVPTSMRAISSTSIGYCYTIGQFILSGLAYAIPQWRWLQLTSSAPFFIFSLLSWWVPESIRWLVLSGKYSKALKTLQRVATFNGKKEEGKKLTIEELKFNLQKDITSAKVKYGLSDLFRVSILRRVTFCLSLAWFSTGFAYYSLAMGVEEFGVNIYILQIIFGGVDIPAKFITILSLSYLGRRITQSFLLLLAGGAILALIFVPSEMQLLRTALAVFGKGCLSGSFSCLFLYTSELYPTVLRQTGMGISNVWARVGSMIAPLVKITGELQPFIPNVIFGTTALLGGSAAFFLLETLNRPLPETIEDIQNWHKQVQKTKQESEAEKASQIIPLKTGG

[2] = target: T1, Organic anion transporter 3 (OAT3); assay: TP_TRANSPORTER: inhibition of Indoxyl sulfate uptake (Indoxyl sulfate: 2 uM, 3,4-Dihydroxymandelic acid: 1000 uM) in Xenopus laevis oocytes; type: functional, cell-based, Oocyte; design: scale not given: the % may be the effect or the level left; conditions: probe Indoxyl sulfate, read-out: Activity
[3] = target: T1, Organic anion transporter 3 (OAT3); assay: TP_TRANSPORTER: inhibition of Indoxyl sulfate uptake (Indoxyl sulfate: 2 uM, 5-Methoxytryptophol: 1000 uM) in Xenopus laevis oocytes; type: functional, cell-based, Oocyte; design: scale not given: the % may be the effect or the level left; conditions: probe Indoxyl sulfate, read-out: Activity
[4] = target: T1, Organic anion transporter 3 (OAT3); assay: TP_TRANSPORTER: inhibition of Indoxyl sulfate uptake (Indoxyl sulfate: 2 uM, HVA: 1000 uM) in Xenopus laevis oocytes; type: functional, cell-based, Oocyte; design: scale not given: the % may be the effect or the level left; conditions: probe Indoxyl sulfate, read-out: Activity
[5] = target: T1, Organic anion transporter 3 (OAT3); assay: TP_TRANSPORTER: inhibition of Indoxyl sulfate uptake (Indoxyl sulfate: 2 uM, Melatonin: 1000 uM) in Xenopus laevis oocytes; type: functional, cell-based, Oocyte; design: scale not given: the % may be the effect or the level left; conditions: probe Indoxyl sulfate, read-out: Activity
[6] = target: T1, Organic anion transporter 3 (OAT3); assay: TP_TRANSPORTER: inhibition of Indoxyl sulfate uptake (Indoxyl sulfate: 2 uM, 5-Hydroxyindole acetic acid: 1000 uM) in Xenopus laevis oocytes; type: functional, cell-based, Oocyte; design: scale not given: the % may be the effect or the level left; conditions: probe Indoxyl sulfate, read-out: Activity
[7] = target: T2, Organic anion transporter 3 (Rattus norvegicus, UniProt Q9R1U7); assay: TP_TRANSPORTER: inhibition of Indoxyl sulfate uptake (Indoxyl sulfate: 2 uM, Ketoprofen: 1000 uM) in Xenopus laevis oocytes; type: functional, cell-based; design: scale not given: the % may be the effect or the level left; conditions: oocyte
T2 sequence (Q9R1U7 whole entry): T1 sequence (Q9R1U7 whole entry)

[8] = target: T1, Organic anion transporter 3 (OAT3); assay: TP_TRANSPORTER: inhibition of Indoxyl sulfate uptake (Indoxyl sulfate: 2 uM, 3,4-Dihydroxyphenylacetic acid: 1000 uM) in Xenopus laevis oocytes; type: functional, cell-based, Oocyte; design: scale not given: the % may be the effect or the level left; conditions: probe Indoxyl sulfate, read-out: Activity
[9] = target: T2, Organic anion transporter 3; assay: TP_TRANSPORTER: inhibition of Indoxyl sulfate uptake (Indoxyl sulfate: 2 uM, Valproic acid: 1000 uM) in Xenopus laevis oocytes; type: functional, cell-based; conditions: oocyte
[10] = target: T1, Organic anion transporter 3 (OAT3); assay: TP_TRANSPORTER: inhibition of Indoxyl sulfate uptake (Indoxyl sulfate: 2 uM, ACV: 1000 uM) in Xenopus laevis oocytes; type: functional, cell-based, Oocyte; design: scale not given: the % may be the effect or the level left; conditions: probe Indoxyl sulfate, read-out: Activity
[11] = target: T1, Organic anion transporter 3 (OAT3); assay: TP_TRANSPORTER: inhibition of Indoxyl sulfate uptake (Indoxyl sulfate: 2 uM, 6-mercaptopurine: 1000 uM) in Xenopus laevis oocytes; type: functional, cell-based, Oocyte; design: scale not given: the % may be the effect or the level left; conditions: probe Indoxyl sulfate, read-out: Activity
[12] = target: T1, Organic anion transporter 3 (OAT3); assay: TP_TRANSPORTER: inhibition of Indoxyl sulfate uptake (Indoxyl sulfate: 2 uM, Imidazoleacetic acid: 1000 uM) in Xenopus laevis oocytes; type: functional, cell-based, Oocyte; design: scale not given: the % may be the effect or the level left; conditions: probe Indoxyl sulfate, read-out: Activity
[13] = target: T1, Organic anion transporter 3 (OAT3); assay: TP_TRANSPORTER: inhibition of Indoxyl sulfate uptake (Indoxyl sulfate: 2 uM, 3-Methoxy-4-hydroxymandelic acid: 1000 uM) in Xenopus laevis oocytes; type: functional, cell-based, Oocyte; design: scale not given: the % may be the effect or the level left; conditions: probe Indoxyl sulfate, read-out: Activity
[14] = target: T1, Organic anion transporter 3 (OAT3); assay: TP_TRANSPORTER: inhibition of Indoxyl sulfate uptake (Indoxyl sulfate: 2 uM, Benzoic acid: 1000 uM) in Xenopus laevis oocytes; type: functional, cell-based, Oocyte; design: scale not given: the % may be the effect or the level left; conditions: probe Indoxyl sulfate, read-out: Activity
[15] = target: T1, Organic anion transporter 3 (OAT3); assay: TP_TRANSPORTER: inhibition of Indoxyl sulfate uptake (Indoxyl sulfate: 2 uM, Cefazolin: 1000 uM) in Xenopus laevis oocytes; type: functional, cell-based, Oocyte; design: scale not given: the % may be the effect or the level left; conditions: probe Indoxyl sulfate, read-out: Activity

**Q.** For `NCC(CC(=O)O)c1ccc(Cl)cc1` (stereo not given) [BACLOFEN], which activity at 1000 µM [1] is on record?
**A.** 25.7%

**Q.** With `O=C(O)[C@H](O)c1ccc(O)c(O)c1` as the molecule, how does the activity at 1000 µM [2] read?
**A.** 33.5%

**Q.** For `COc1ccc2[nH]cc(CCO)c2c1`, which activity at 1000 µM [3] is on record?
**A.** 26.8%

**Q.** For `COc1cc(CC(=O)O)ccc1O` [HOMOVANILLIC ACID], which activity at 1000 µM [4] is on record?
**A.** 29.9%

**Q.** `COc1ccc2[nH]cc(CCNC(C)=O)c2c1` [MELATONIN] was tested. Which activity at 1000 µM [5] did it give?
**A.** 30.9%

**Q.** For `O=C(O)Cc1c[nH]c2ccc(O)cc12`, which activity at 1000 µM [6] is on record?
**A.** 18.7%

**Q.** With `CC(C(=O)O)c1cccc(C(=O)c2ccccc2)c1` (stereo not given) [KETOPROFEN] as the molecule, how does the Activity [7] read?
**A.** 22.3%

**Q.** For `O=C(O)Cc1ccc(O)c(O)c1` [3,4-DIHYDROXYPHENYLACETIC ACID], which activity at 1000 µM [8] is on record?
**A.** 8.86%

**Q.** `CCCC(CCC)C(=O)O` [VALPROIC ACID] was tested. Which Activity [9] did it give?
**A.** is not an inhibitor [-]

**Q.** Which activity at 1000 µM [10] does the source give for `Nc1nc2c(ncn2COCCO)c(=O)[nH]1` [ACYCLOVIR] here?
**A.** 7.66%

**Q.** `Sc1ncnc2nc[nH]c12` [MERCAPTOPURINE ANHYDROUS] was tested. Which activity at 1000 µM [11] did it give?
**A.** 19.1%

**Q.** `O=C(O)Cc1ncc[nH]1` [IMIDAZOLEACETIC ACID] was tested. Which activity at 1000 µM [12] did it give?
**A.** 69.4%

**Q.** With `COc1cc([C@@H](O)C(=O)O)ccc1O` as the molecule, how does the activity at 1000 µM [13] read?
**A.** 27.3%

**Q.** Which activity at 1000 µM [14] does the source give for `O=C(O)c1ccccc1` [BENZOIC ACID] here?
**A.** 71.6%

**Q.** `Cc1nnc(SCC2=C(C(=O)O)N3C(=O)[C@@H](NC(=O)Cn4cnnn4)[C@H]3SC2)s1` [CEFAZOLIN] was tested. Which activity at 1000 µM [15] did it give?
**A.** 13.6%
